pIC50: −log10 of the molar value. In brackets after ≈: the same amount, converted by molar mass. Like-named read-outs stand apart in the source and are kept apart here.
Experiments:
[1] = tested on: HCT116 p53+/+ colon cancer cells; experiment: MTT cytotoxicity assay, HCT116 p53+/+; assay type: cell-based; conditions: read-out: IC50 HCT116 p53+/+ colon cancer cells
Experimental: (§1) Cell cultures and cytotoxicity assays have been used. Celastrol was dissolved in DMSO at a final concentration of 100 mmol/L and stored at −20° C. Cytotoxicity was assessed using the 3-(4,5-dimethylthiazol-2-yl)-2,5-diphenyltetrazolium bromide assay. 4000 cells from HCT116 p53^+/+ or p53^−/− colon cancer cells and DLD-1 Bax-Bak^+/+ or Bax-Bak^−/− colon cancer cells were seeded on 96-well plates per well. […] Subsequently, 10 μL of MTT reagents were added to each well and incubated at 37° C. for 4 hours followed by the addition of 100 μL solubilization buffer (10% SDS in 0.01 mol/L HCl) and overnight incubation. […] The percentage of cell viability was calculated using the following formula: Cell viability (%)=Cells number treated/Cells number DMSO control×100. Data were obtained from three independent experiments.

[2] = tested on: HCT116 p53-/- colon cancer cells; experiment: MTT cytotoxicity assay, HCT116 p53-/-; assay type: cell-based; conditions: for pIC50: read-out: IC50 HCT116 p53-/- colon cancer cells; for Resistant Factor: IC50 HCT116 p53-/- divided by IC50 HCT116 p53+/+
Experimental: as §1

[3] = tested on: DLD-1 Bax-Bak-/- colon cancer cells; experiment: MTT cytotoxicity assay, DLD-1 Bax-Bak-/-; assay type: cell-based; conditions: for Resistant Factor: IC50 DLD-1 Bax-Bak-/- divided by IC50 DLD-1 Bax-Bak+/+
Experimental: as §1

[4] = tested on: MCF-7 (Breast) doxorubicin resistant cancer cells; experiment: MTT cytotoxicity assay, MCF-7 doxorubicin resistant; assay type: cell-based, human
Experimental: (§2) Cell cultures and cytotoxicity assays have been used. Celastrol was dissolved in DMSO at a final concentration of 100 mmol/L and stored at −20° C. Cytotoxicity was assessed using the 3-(4,5-dimethylthiazol-2-yl)-2,5-diphenyltetrazolium bromide assay. 4000 cells from MCF-7 doxorubicin sensitive/resistant breast cancer cells or CEM doxorubicin sensitive/resistant leukemia cells were seeded on 96-well plates per well. After overnight pre-incubation, the cells were exposed to different concentrations of celastrol (0.039-100 μmol/L) or doxorubicin for 3 days. Subsequently, 10 μL of MTT reagents were added to each well and incubated at 37° C. for 4 hours followed by the addition of 100 μL solubilization buffer (10% SDS in 0.01 mol/L HCl) and overnight incubation. Absorbance at 585 nm was determined from each well the next day. The percentage of cell viability was calculated using the following formula: Cell viability (%)=Cells number treated/Cells number DMSO control×100. Data were obtained from three independent experiments.

[5] = tested on: DLD-1 Bax-Bak+/+ colon cancer cells; experiment: MTT cytotoxicity assay, DLD-1 Bax-Bak+/+; assay type: cell-based; conditions: MTT, 3 days
Experimental: as §1

P-gp = P-gp (Homo sapiens, UniProt P08183); experiment: Rho123 efflux assay in A549 taxol-resistant lung cancer cells (flow cytometry); conditions: 0.5 μM celastrol, pristimerin or dihydrocelastrol, or 10 μM verapamil, 24 h, then Rho123 1 h
Chain of P-gp (P08183 whole entry): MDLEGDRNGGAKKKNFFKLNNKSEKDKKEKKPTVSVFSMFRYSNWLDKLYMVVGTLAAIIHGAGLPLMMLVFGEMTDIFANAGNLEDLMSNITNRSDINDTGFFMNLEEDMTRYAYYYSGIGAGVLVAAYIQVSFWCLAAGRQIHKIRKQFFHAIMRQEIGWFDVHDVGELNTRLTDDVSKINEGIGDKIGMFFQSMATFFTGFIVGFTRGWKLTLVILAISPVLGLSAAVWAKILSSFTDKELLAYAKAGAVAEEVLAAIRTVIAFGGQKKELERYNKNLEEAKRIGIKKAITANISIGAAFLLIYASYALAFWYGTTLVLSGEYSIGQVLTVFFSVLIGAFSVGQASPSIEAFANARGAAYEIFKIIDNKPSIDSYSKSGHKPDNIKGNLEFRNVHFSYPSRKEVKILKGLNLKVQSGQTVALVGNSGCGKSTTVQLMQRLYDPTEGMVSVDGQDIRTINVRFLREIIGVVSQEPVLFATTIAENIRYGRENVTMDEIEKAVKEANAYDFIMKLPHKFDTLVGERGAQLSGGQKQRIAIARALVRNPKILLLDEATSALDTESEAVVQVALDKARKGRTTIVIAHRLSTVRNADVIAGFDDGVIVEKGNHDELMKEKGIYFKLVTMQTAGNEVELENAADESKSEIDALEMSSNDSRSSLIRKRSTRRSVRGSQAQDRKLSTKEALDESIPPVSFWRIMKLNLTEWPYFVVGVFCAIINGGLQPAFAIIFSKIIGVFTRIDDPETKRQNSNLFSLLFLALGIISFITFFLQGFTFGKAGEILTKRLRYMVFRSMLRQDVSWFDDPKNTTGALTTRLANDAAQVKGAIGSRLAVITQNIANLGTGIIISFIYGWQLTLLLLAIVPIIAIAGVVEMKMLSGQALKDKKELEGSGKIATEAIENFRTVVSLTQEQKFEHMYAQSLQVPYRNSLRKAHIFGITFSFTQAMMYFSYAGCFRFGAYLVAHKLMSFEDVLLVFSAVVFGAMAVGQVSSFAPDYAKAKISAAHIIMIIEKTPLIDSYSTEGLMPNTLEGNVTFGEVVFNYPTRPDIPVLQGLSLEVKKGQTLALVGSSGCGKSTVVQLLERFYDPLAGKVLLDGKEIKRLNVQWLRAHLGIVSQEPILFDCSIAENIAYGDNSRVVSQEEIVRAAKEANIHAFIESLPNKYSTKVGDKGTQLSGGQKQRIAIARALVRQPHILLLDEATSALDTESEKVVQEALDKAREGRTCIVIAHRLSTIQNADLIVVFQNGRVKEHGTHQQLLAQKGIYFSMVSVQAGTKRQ
Experimental: A549 taxol-resistant lung cancer cells were seeded in 6 well-plates at a final concentration of 2×10^5 cells per well and cultured for 24 h at 37° C. in an atmosphere containing 5% CO2. […] Subsequently, 5 mg/mL Rho123 was added to each well and the wells were incubated for another 1 h at 37° C. At the end of the incubation, the accumulation of Rho123 was stopped by washing the cells five times with ice-cold PBS. After cell centrifugation, cell pellets were resuspended in 400 μL PBS. […] All data acquisition and analyses were performed with CellQuest (BD Biosciences, San Jose, Calif., USA) in triplicate in three independent experiments, and the results were shown as the mean of fluorescence intensity.
A549 taxol-resistant lung cancer cells were seeded in 6 well-plates at a final concentration of 2×10^5 cells per well and cultured for 24 h at 37° C. in an atmosphere containing 5% CO2. […] All data acquisition and analyses were performed with CellQuest (BD Biosciences, San Jose, Calif., USA) in triplicate in three independent experiments, and the results were shown as the mean of fluorescence intensity.

[6] = tested on: SGC-7901 (Gastric) cisplatin sensitive cancer cells; experiment: MTT cytotoxicity assay, SGC-7901 cisplatin sensitive; assay type: cell-based, human; conditions: MTT, 3 days; read-out: IC50 SGC-7901 (Gastric) (Cisplatin sensitive)
Experimental: as §2, with “A2780 cisplatin” for “MCF-7 doxorubicin”, “ovarian” for “breast”, “SGC-7901 cisplatin” for “CEM doxorubicin”, “gastric cancer” for “leukemia”, “cisplatin” for “doxorubicin”

[7] = tested on: A2780 (Ovary) cisplatin resistant cancer cells; experiment: MTT cytotoxicity assay, A2780 cisplatin resistant; assay type: cell-based, human
Experimental: as §2, with “A2780 cisplatin” for “MCF-7 doxorubicin”, “ovarian” for “breast”, “SGC-7901 cisplatin” for “CEM doxorubicin”, “gastric cancer” for “leukemia”, “cisplatin” for “doxorubicin”

[8] = tested on: A2780 (Ovary) cisplatin sensitive cancer cells; experiment: MTT cytotoxicity assay, A2780 cisplatin sensitive; assay type: cell-based, human; conditions: MTT, 3 days; read-out: IC50 A2780 (Ovary) (Cisplatin sensitive)
Experimental: as §2, with “A2780 cisplatin” for “MCF-7 doxorubicin”, “ovarian” for “breast”, “SGC-7901 cisplatin” for “CEM doxorubicin”, “gastric cancer” for “leukemia”, “cisplatin” for “doxorubicin”

[9] = tested on: SGC-7901 (Gastric) cisplatin resistant cancer cells; experiment: MTT cytotoxicity assay, SGC-7901 cisplatin resistant; assay type: cell-based, human
Experimental: as §2, with “A2780 cisplatin” for “MCF-7 doxorubicin”, “ovarian” for “breast”, “SGC-7901 cisplatin” for “CEM doxorubicin”, “gastric cancer” for “leukemia”, “cisplatin” for “doxorubicin”

[10] = tested on: MCF-7 (Breast) taxol resistant cancer cells; experiment: MTT cytotoxicity assay, MCF-7 taxol resistant; assay type: cell-based, human
Experimental: (§3) Cell cultures and cytotoxicity assays have been used. Celastrol was dissolved in DMSO at a final concentration of 100 mmol/L and stored at −20° C. Cytotoxicity was assessed using the 3-(4,5-dimethylthiazol-2-yl)-2,5-diphenyltetrazolium bromide assay. 4000 cells from A549 (lung), A2780 (ovary), HCT-8 (colon) and MCF-7 (breast) cancer cells were seeded on 96-well plates per well. After overnight pre-incubation, the cells were exposed to different concentrations of celastrol (0.039-100 μmol/L) or taxol for 3 days. Subsequently, 10 μL of MTT reagents was added to each well and incubated at 37° C. for 4 hours followed by the addition of 100 μL solubilization buffer (10% SDS in 0.01 mol/L HCl) and overnight incubation. Absorbance at 585 nm was determined from each well the next day. The percentage of cell viability was calculated using the following formula: Cell viability (%)=Cells number treated/Cells number DMSO control×100. Data were obtained from three independent experiments.

[11] = tested on: A549 taxol-resistant lung cancer cells; experiment: MTT cytotoxicity of taxol in presence or absence of celastrol; assay type: cell-based; conditions: Homo sapiens, A549, 72 h, 3 days
Experimental: Cell cultures and cytotoxicity assays have been carried out. Celastrol was dissolved in DMSO at a final concentration of 100 mmol/L and stored at −20° C. Cytotoxicity was assessed using the 3-(4,5-dimethylthiazol-2-yl)-2,5-diphenyltetrazolium bromide assay. 4000 cells from A549 taxol-resistant lung cancer cells were seeded on 96-well plates per well. After overnight pre-incubation, the cells were exposed to different concentrations of taxol (0.019-100 μmol/L) in the presence or absence of celastrol (0.5 μM) for 3 days. Subsequently, 10 μL of MTT reagents was added to each well and incubated at 37° C. for 4 hours followed by the addition of 100 μL solubilization buffer (10% SDS in 0.01 mol/L HCl) and overnight incubation. […] The percentage of cell viability was calculated using the following formula: Cell viability (%)=Cells number treated/Cells number DMSO control×100. Data were obtained from three independent experiments.

[12] = tested on: HCT-8 (Colon) taxol resistant cancer cells; experiment: MTT cytotoxicity assay, HCT-8 taxol resistant; assay type: cell-based, human; conditions: for Resistant Factor: HCT-8 taxol resistant versus taxol sensitive
Experimental: as §3

[13] = tested on: HCT-8 (Colon) taxol sensitive cancer cells; experiment: MTT cytotoxicity assay, HCT-8 taxol sensitive; assay type: cell-based; conditions: Homo sapiens, HCT-8, 72 h; MTT, 3 days; read-out: IC50 HCT-8 (Colon) (Taxol sensitive)
Experimental: as §3

[14] = tested on: A549 (Lung) taxol sensitive cancer cells; experiment: MTT cytotoxicity assay, A549 taxol sensitive; assay type: cell-based; conditions: Homo sapiens, A549, 72 h; MTT, 3 days; read-out: IC50 A549 (Lung) (Taxol sensitive)
Experimental: as §3

[15] = tested on: A549 (Lung) taxol resistant cancer cells; experiment: MTT cytotoxicity assay, A549 taxol resistant; assay type: cell-based, human; conditions: for Resistant Factor: A549 taxol resistant versus taxol sensitive
Experimental: as §3

[16] = tested on: A2780 (Ovary) taxol sensitive cancer cells; experiment: MTT cytotoxicity assay, A2780 taxol sensitive; assay type: cell-based; conditions: Homo sapiens, A2780, 72 h; MTT, 3 days; read-out: IC50 A2780 (Ovary) (Taxol sensitive)
Experimental: as §3

[17] = tested on: MCF-7 (Breast) taxol sensitive cancer cells; experiment: MTT cytotoxicity assay, MCF-7 taxol sensitive; assay type: cell-based; conditions: Homo sapiens, MCF7, 72 h; MTT, 3 days; read-out: IC50 MCF-7 (Breast) (Taxol sensitive)
Experimental: as §3

[18] = tested on: A2780 (Ovary) taxol resistant cancer cells; experiment: MTT cytotoxicity assay, A2780 taxol resistant; assay type: cell-based, human; conditions: for Resistant Factor: A2780 taxol resistant versus taxol sensitive
Experimental: as §3

[19] = Homo sapiens, DLD-1, 72 h, MTT, 3 days, read-out: IC50 DLD-1 Bax-Bak-/- colon cancer cells
[20] = Homo sapiens, DLD-1, 72 h, read-out: IC50 DLD-1 Bax-Bak+/+ colon cancer cells
[21] = Homo sapiens, HCT-116, 72 h, MTT, 3 days

Compound: COc1cccc2c1C(=O)c1c(O)c3c(c(O)c1C2=O)C[C@@](O)(C(=O)CO)C[C@@H]3O[C@H]1C[C@H](N)[C@H](O)[C@H](C)O1 [Doxorubicin, doxorubicin]
- pIC50 ([1]; Homo sapiens, HCT-116, 72 h): 6.28
- pIC50 ([2]; Homo sapiens, HCT-116, 72 h): 4.99
- Resistant Factor [2]: 19.52
- IC50 [3, 19]: 0.539 µg/mL
- Resistant Factor [3]: 10.31
- IC50 ([4]; Homo sapiens, MCF7, 72 h, MTT, 3 days, read-out: IC50 MCF-7 (Breast) (Doxorubicin resistant)): 10 µg/mL (≈ 18.4 µM)
- Resistant Factor ([4]; MCF-7 doxorubicin resistant versus doxorubicin sensitive): 21.6
- IC50 [5, 20]: 0.0523 µg/mL

Compound: COC(=O)[C@]1(C)CC[C@]2(C)CC[C@]3(C)C4=CC=C5C(=CC(=O)C(O)=C5C)[C@]4(C)CC[C@@]3(C)[C@@H]2C1 [pristimerin]
- P-gp activity / Rho123 accumulation (Example 9) (P-gp): showed P-pg inhibition

Compound: N.N.[Cl][Pt][Cl] [Cisplatin, cisplatin]
- pIC50 ([1]; MTT, 3 days): 6.72
- pIC50 [6]: 5.90
- Resistant Factor [2]: 92.37
- pIC50 ([2]; MTT, 3 days): 4.76
- Resistant Factor [3]: 1.84
- IC50 DLD-1 Bax-Bak-/- colon cancer cells ([3]; MTT, 3 days): 3.678 µg/mL
- Resistant Factor ([7]; A2780 cisplatin resistant versus cisplatin sensitive): 14.92
- pIC50 ([7]; MTT, 3 days, read-out: IC50 A2780 (Ovary) (Cisplatin resistant)): 4.73
- pIC50 [8]: 5.91
- pIC50 ([9]; MTT, 3 days, read-out: IC50 SGC-7901 (Gastric) (Cisplatin resistant)): 5.21
- Resistant Factor ([9]; SGC-7901 cisplatin resistant versus cisplatin sensitive): 4.9
- IC50 DLD-1 Bax-Bak+/+ colon cancer cells [5]: 1.994 µg/mL

Compound: CN[C@@H]1C[C@H]2O[C@@](C)([C@@H]1OC)n1c3ccccc3c3c4c(c5c6ccccc6n2c5c31)C(=O)NC4 [Staurosporine, staurosporine]
- pIC50 [2, 21]: 7.32
- Resistant Factor [2]: 13.01
- Resistant Factor [3]: 3.34

Compound: CC(=O)O[C@H]1C(=O)[C@@]2(C)[C@H]([C@H](OC(=O)c3ccccc3)[C@]3(O)C[C@H](OC(=O)[C@H](O)[C@@H](NC(=O)c4ccccc4)c4ccccc4)C(C)=C1C3(C)C)[C@]1(OC(C)=O)CO[C@@H]1C[C@@H]2O [Taxol, paclitaxel (taxol)]
- pIC50 [1, 21]: 7.71
- pIC50 ([10]; Homo sapiens, MCF7, 72 h, MTT, 3 days, read-out: IC50 MCF-7 (Breast) (Taxol resistant)): 5.30
- Resistant Factor ([10]; MCF-7 taxol resistant versus taxol sensitive): 5000
- pIC50 ([11]; co-treated with 0.5 μM celastrol, read-out: mean IC50 of taxol in the presence of celastrol): 5.66
- pIC50 ([11]; taxol alone, read-out: mean IC50 of taxol): 4.44
- Resistant Factor [12]: >31000
- Resistant Factor ([12]; listed as taxol): 31000
- pIC50 ([12]; Homo sapiens, HCT-8, 72 h, MTT, 3 days, read-out: IC50 HCT-8 (Colon) (Taxol resistant)): 4.49
- pIC50 [13]: > 9.00
- pIC50 [2, 21]: 6.60
- Resistant Factor [2]: 12.87
- pIC50 [3, 19]: < 7.00
- Resistant Factor [3]: >23.2
- pIC50 [14]: 7.47
- Resistant Factor [15]: 894.12
- Resistant Factor ([15]; listed as taxol): over 894
- pIC50 ([15]; Homo sapiens, A549, 72 h, MTT, 3 days, read-out: IC50 A549 (Lung) (Taxol resistant)): 4.52
- pIC50 [16]: > 9.00
- pIC50 [5, 20]: 8.37
- pIC50 [17]: > 9.00
- Resistant Factor [18]: >62000
- Resistant Factor ([18]; listed as taxol): over 62000
- pIC50 ([18]; Homo sapiens, A2780, 72 h, MTT, 3 days, read-out: IC50 A2780 (Ovary) (Taxol resistant)): 4.21

Compound: COc1cc([C@@H]2c3cc4c(cc3[C@@H](O[C@@H]3O[C@@H]5CO[C@@H](C)O[C@H]5[C@H](O)[C@H]3O)[C@H]3COC(=O)[C@H]23)OCO4)cc(OC)c1O [Etoposide, etoposide]
- pIC50 [1, 21]: 6.03
- pIC50 [2, 21]: 4.97
- Resistant Factor [2]: 11.28
- pIC50 [3, 19]: 4.39
- Resistant Factor [3]: 17.12
- pIC50 [5, 20]: 5.63

— patent publication US10322097B2, “Treatment of subjects with multidrug-resistant cancer” (priority 2015, dated 2019)
